Data as given in patent publication US20050043289A1, “Crystalline hydrochloride of 7-(((5-amino-1,2,4-thiadiazol-3-yl) (fluoromethoxyimino)acetyl)amino)-3-((imino-1-piperazinylmethyl)methylhydrazono)-methyl-3-cephem-4-carboxylic acid” (priority 2002, published 2005).
In brackets after ≈: the same amount, converted by molar mass. Structures can show the parent of a compound that is named as a salt. Where two headings read alike, the source gives them in different places.

Legend:
[1] = solubility in water; type: physicochemical
From the text: Thus, a compound of the present invention is appropriate for pharmaceutical administration.

[2] = storage stability in solid form; type: physicochemical; details: e.g. at 5° C.
[3] = stability in aqueous solution; type: physicochemical; details: pH values of 3-5, 5° C.
[4] = system: Enterobacter cloacae; assay: MIC, Agar Dilution Test and/or Micro Dilution Test (NCCLS); type: cell-based; details: against Enterobacter cloacae
[5] = system: multi-drug resistant Pneumococcus; assay: as above; type: cell-based; details: Streptococcus pneumoniae; against multi-drug resistant Pneumococcus
From the text: (§1) In particular, the compounds of the present invention show antimicrobial, e.g. antibacterial activity against aerobic and anaerobic growing bacteria, e.g. gram negative and gram positive bacteria such as Enterobacter, e.g. Enterobacter cloacae; Enterococcus, e.g. Enterococcus faecalis; Moraxella, e.g. Moraxella catarrhalis; Haemophilus, e.g. Haemophilus influenza; Klebsiella, e.g. Klebsiella edwardsii, Klebsiella pneumoniae; Streptococcus, e.g. Streptococcus pyogenes; Staphylococcus, e.g. Staphylococcus aureus MSSA (methicillin sensitive strains); Staphylococcus aureus MRSA (methicillin resistant strains); Escherichia coli; Proteus, e.g. Proteus mirabilis; Salmonella, e.g. Salmonella typhimurium; Serratia, e.g. Serratia marcescens; Pneumococci, e.g. Streptococcus pneumoniae (penicillin resistant and multi-drug resistant strains); in vitro in the Agar Dilution Test and/or Micro Dilution Test for bacteria according to National Committee for Clinical Laboratory Standards (NCCLS) 1993, • Document M7-A3, Vol. 13, No.25: “Methods for dilution Antimicrobial Susceptibility Tests for Bacteria that Grow Aerobically”—Third Edition, Approved Standard”; and • Document M11 -A3 for anaerobic bacteria in a concentration from about 0.001 to about […] (MIC), e.g. using strains including Staphylococcus aureus (ATCC 29213 and ATCC 9144); Enterococcus faecalis (ATCC 29212); Haemophilus influenza (NTCC 49247 and NCTC 11931); Escherichia coli (ATCC 25922 and ATCC 35218); Klebsiella pneumoniae (NCTC 11228); Klebsiella edwardsii (NCTC 10896); and in vivo in the septicaemia mouse model, in accordance to the method description Nr. […] E.g., mice are infected with an ED 95% of Staphylococcus aureus (ATCC 4995), Streptococcus pyogenes (ATCC 29218), Escherichia coli (Δ 12 NFI culture collection) and are treated 1.5 and 24 hours after infection. The ED 50% values ranging form ca. 0.2 to 50 mg/kg body weight are calculated by Probit analysis of the administered dosages of compounds. Activity is determined by numbers of surviving animals per group of 8 mice per dosage unit day 5 after infection. The compounds of the invention show an surprising overall activity spectrum.

[6] = system: Enterococcus faecalis; assay: as above; type: cell-based; details: against Enterococcus faecalis
From the text: as §1

[7] = system: methicillin resistant Staphylococcus aureus; assay: as above; type: cell-based; details: against methicillin resistant Staphylococcus aureus
From the text: as §1

[8] = system: Staphylococcus aureus (MSSA); assay: as above; type: cell-based; details: against Staphylococcus aureus (MSSA)
From the text: as §1

[9] = water uptake in presence of environmental moisture (stress test) / water content constancy; type: physicochemical; details: Karl Fischer, over 6 weeks
From the text: A monohydrochloride, produced according to the present invention, may be obtained in the form of a trihydrate, which, after appropriate drying, has a water content of ca. 7% to 10%, such as 7.3% to 9.6% (theory: 8.2%). The monohydrochloride in the form of a trihydrate may be dried, e.g. over P2O5, to a water content of 1.5%. […] The chloride content of the monohydrochloride in the form of a trihydrate is between 5% and 6% (theory: 5.5%).
Water content (Karl Fischer): 9.6%. […] HCl (titration): 5.5%. Isopropanol-content: 0.05%. Content of a compound of formula I (based on the free base): […]. pH and [β]^20D of a 1% solution in water: pH: 4.3; [β]^20589=−167±1°

Compound	solubility ([1]; in water at 5°C.)	solubility ([1]; in water at room temperature, read-out: solubility) [mg/mL]	storage time with practically no or only slight decomposition [2]	stability in aqueous solution [3]	MIC [4] [µg/mL]	MIC [5] [µg/mL]	MIC [6] [µg/mL]	MIC [7] [µg/mL]	MIC [8] [µg/mL]	water content constancy [9]
CN(/N=C/C1=C(C(=O)O)N2C(=O)[C@@H](NC(=O)/C(=N\OCF)c3nsc(N)n3)C2SC1)C(=N)N1CCNCC1 (stereo partly shown)	≥ 2 % (w/v)	~100 (≈ 176 mM)	at least 4 weeks	remains stable for at least one week						
CN(/N=C/C1=C(C(=O)O)N2C(=O)[C@@H](NC(=O)/C(=N\OCF)c3nsc(N)n3)C2SC1)C(=N)N1CCNCC1 (stereo partly shown) [Example 2, 7-{[(5-amino-1,2,4-thiadiazol-3-yl)-(Z)-(fluoromethoxyimino)acetyl]amino}-3-[(imino-1-piperazinylmethyl)methylhydrazono]-methyl-3-cephem-4-carboxylic acid in the form of a monohydrochloride and in the form of a trihydrate]					0.025 to 12.8	0.4 to 0.8	0.1 to 0.8	0.8 to 12.6	0.2 to 0.8	Water content constant (±6%) over 6 weeks
